Molecules are shown by their SMILES.

Ki and Activity data for 22 compounds are collected here from ChEMBL document CHEMBL5154744, “Stereo-Defined Acyclic Nucleoside Phosphonates are Selective and Potent Inhibitors of Parasite 6-Oxopurine Phosphoribosyltransferases” (J Med Chem, 2022).

The nature of series [1]: Inhibition of Plasmodium falciparum HGXPRT using PRib-PP as substrate by spectrophotometric assay.
Series [2] has as its target T1, Hypoxanthine-guanine phosphoribosyltransferase (Homo sapiens, UniProt P00492).
T1 sequence (P00492 whole entry): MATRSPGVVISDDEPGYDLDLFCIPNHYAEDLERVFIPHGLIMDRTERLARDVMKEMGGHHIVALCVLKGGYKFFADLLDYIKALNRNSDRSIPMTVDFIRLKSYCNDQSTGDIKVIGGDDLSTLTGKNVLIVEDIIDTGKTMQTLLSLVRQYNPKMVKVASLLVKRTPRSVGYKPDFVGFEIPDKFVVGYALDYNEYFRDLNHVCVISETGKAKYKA
Briefly: Inhibition of human HGPRT using PRib-PP as substrate by spectrophotometric assay.

The nature of series [3]: Inhibition of His-tagged Trypanosoma brucei HGPRT1 expressed in Escherichia coli BL21 (DE3) cells using PRib-PP as substrate by spectrophotometric assay.
Series [4] can be described thus: Inhibition of His-tagged Trypanosoma brucei HGXPRT expressed in Escherichia coli BL21 (DE3) cells using PRib-PP as substrate by spectrophotometric assay.
Series [5] can be described thus: Inhibition of Plasmodium vivax HGPRT using PRib-PP as substrate by spectrophotometric assay.
The test system of a further series is NHDF. Briefly: Cytotoxicity against human NHDF cells assessed as cell viability at 10 uM. The class given is toxicity, cell-based.
A further series relates to HeLa. In words: Cytotoxicity against human HeLa cells assessed as cell viability at 10 uM. The class given is toxicity, cell-based.

For the compound `Nc1nc2c(ncn2C[C@H](COCP(=O)([O-])[O-])OCC(O)CO)c(=O)[nH]1.[Na+].[Na+]` (stereo not given in full), the Ki (as a rule, the equilibrium dissociation constant of an inhibitor or competing ligand from its target) in series [1] was 1000 nM; in series [2], 4000 nM; in series [3], 500 nM; in series [4] it was 2000 nM; in series [5], 5000 nM. The Activity result in the series with NHDF and in the series on HeLa was “Non-Toxic” throughout.
In the case of `Nc1nc2c(ncn2C[C@@H](COCP(=O)([O-])[O-])OC[C@H](O)P(=O)([O-])[O-])c(=O)[nH]1.[Na+].[Na+].[Na+].[Na+]`, the Ki in series [1] was 50 nM; in series [2], 100 nM; in series [3] it was 2 nM; in series [4] it was 30 nM; in series [5], 20 nM. For the same compound, the Activity result in the series with NHDF and in the series with HeLa was “Non-Toxic” each time.
`O=c1[nH]cnc2c1ncn2C[C@@H](COCP(=O)([O-])[O-])OCC(O)CO.[Na+].[Na+]` (stereo not given in full): the inhibitory constant (Ki) amounted to 2400 nM in series [1], 1000 nM in series [3], 14000 nM in series [4] and 13000 nM in series [5]. In addition, the Activity entry in the series with NHDF and in the series on HeLa was “Non-Toxic” each time.
For the compound `O=C(CCP(=O)(O)O)N1CC(OCCP(=O)(O)O)[C@H](n2cnc3c(=O)[nH]cnc32)C1` (stereo not given in full), the values for the inhibition constant Ki in series [1], in series [2] and in series [5] were 14 nM, 20 nM and 80 nM, respectively.
On to `O=c1[nH]cnc2c1ncn2C[C@@H](COCP(=O)([O-])[O-])OCC(O)P(=O)([O-])[O-].[Na+].[Na+].[Na+].[Na+]` (stereo not given in full), for which the Ki in series [1] is 400 nM; in series [2], 4000 nM; in series [3], 30 nM; in series [4], 30 nM; in series [5], 200 nM. The Activity entry in the series with NHDF and in the series on HeLa was “Non-Toxic” each time.
With `Nc1nc2c(ncn2C[C@H](COCP(=O)([O-])[O-])OCCCP(=O)([O-])[O-])c(=O)[nH]1.[Na+].[Na+].[Na+].[Na+]`, the inhibitory constant (Ki) was determined as 800 nM in series [1]; 400 nM in series [2]; 40 nM in series [3]; 60 nM in series [4]; 700 nM in series [5]. The Activity entry in the series with NHDF and in the series with HeLa was “Non-Toxic” each time.
On to `Nc1nc2c(ncn2C[C@@H](COCP(=O)([O-])[O-])OCCCP(=O)([O-])[O-])c(=O)[nH]1.[Na+].[Na+].[Na+].[Na+]`, for which the inhibition constant (Ki) stood at 200 nM in series [1]; 500 nM in series [2]; 10 nM in series [3]; 250 nM in series [4]; 400 nM in series [5]. In addition, the Activity entry in the series with NHDF and in the series with HeLa was “Non-Toxic” in each case.
For the compound `O=c1[nH]cnc2c1ncn2C[C@@H](COCP(=O)([O-])[O-])OCCCP(=O)([O-])[O-].[Na+].[Na+].[Na+].[Na+]`, the Ki in series [1] was 6000 nM; in series [2], 22000 nM; in series [3], 400 nM; in series [4], 450 nM. Further, the Activity result with NHDF and in the series on HeLa was “Non-Toxic” throughout.
For the compound `O=C(CCP(=O)(O)O)N1CC(OC[C@@H](O)P(=O)(O)O)[C@H](n2cnc3c(=O)[nH]cnc32)C1` (stereo not given in full), the inhibition constant Ki in series [1] worked out at 2 nM; in series [5], 6 nM.
On to `Nc1nc2c(ncn2C[C@@H](COCP(=O)([O-])[O-])OC[C@@H](O)P(=O)([O-])[O-])c(=O)[nH]1.[Na+].[Na+].[Na+].[Na+]`, for which the inhibitory constant (Ki) in series [1] is 30 nM; in series [2], 70 nM; in series [3], 2 nM; in series [4] it was 20 nM; in series [5] it was 20 nM. In addition, the Activity entry in the series on NHDF and in the series with HeLa was “Non-Toxic” in each case.
Regarding `O=c1[nH]cnc2c1ncn2CCCC(O)C(O)P(=O)(O)O` (stereo not given), the Ki in series [1] came to 3000 nM; in series [2], 5000 nM; in series [3], 7000 nM; in series [4] it was 6000 nM.
As to `Nc1nc2c(ncn2CCOCC(O)P(=O)(O)O)c(=O)[nH]1` (stereo not given), the inhibition constant (Ki) was found to be 300 nM in series [1], 200 nM in series [2] and 600 nM in series [4].
Consider `Nc1nc2c(ncn2C[C@H](COCP(=O)([O-])[O-])OCC(O)P(=O)([O-])[O-])c(=O)[nH]1.[Na+].[Na+].[Na+].[Na+]` (stereo not given in full), for which the Ki in series [1] was determined as 100 nM; in series [2], 400 nM; in series [3], 40 nM; in series [4] it was 40 nM; in series [5] it was 300 nM. Also, the Activity result in the series with NHDF and with HeLa was “Non-Toxic” in each case.
For the compound `O=c1[nH]cnc2c1ncn2CCC/C=C/P(=O)(O)O`, the inhibition constant Ki was determined as 13000 nM in series [1], 6000 nM in series [2], 1000 nM in series [3] and 12000 nM in series [4].
Turning to `O=c1[nH]cnc2c1ncn2C[C@H](COCP(=O)([O-])[O-])OCCCP(=O)([O-])[O-].[Na+].[Na+].[Na+].[Na+]`, the Ki stood at 300 nM in series [2], 1500 nM in series [3] and 200 nM in series [4]. Besides, the Activity entry in the series with NHDF and in the series with HeLa was “Non-Toxic” throughout.
Regarding `O=c1[nH]cnc2c1ncn2CCOCC(O)P(=O)(O)O` (stereo not given), the inhibition constant Ki worked out at 700 nM in series [1], 2000 nM in series [2], 600 nM in series [3] and 100 nM in series [4].
On to `Nc1nc2c(ncn2CC(COCP(=O)(O)O)COCP(=O)(O)O)c(=O)[nH]1`, for which the Ki came out at 70 nM in series [1] and 600 nM in series [5].
For the compound `O=c1[nH]cnc2c1ncn2C[C@H](COCP(=O)([O-])[O-])OCC(O)CO.[Na+].[Na+]` (stereo not given in full), the Ki in series [3] worked out at 2400 nM; in series [4] it was 9000 nM. The Activity entry in the series on NHDF and in the series with HeLa was “Non-Toxic” each time.
As for `O=c1[nH]cnc2c1ncn2C[C@H](COCP(=O)([O-])[O-])OCC(O)P(=O)([O-])[O-].[Na+].[Na+].[Na+].[Na+]` (stereo not given in full), the inhibition constant Ki in series [2] was found to be 2000 nM; in series [3], 300 nM; in series [4], 100 nM; in series [5], 700 nM. Further, the Activity entry in the series with NHDF and in the series with HeLa was “Non-Toxic” each time.
Consider `Nc1nc2c(ncn2C[C@@H](COCP(=O)([O-])[O-])OCC(O)CO)c(=O)[nH]1.[Na+].[Na+]` (stereo not given in full), for which the Ki in series [1] was found to be 1000 nM; in series [2] it was 9000 nM; in series [3] it was 300 nM; in series [4], 2000 nM; in series [5], 2000 nM. Also, the Activity result with NHDF and in the series with HeLa was “Non-Toxic” each time.
For the compound `Nc1nc2c(ncn2C[C@@H](COCCOP(=O)(O)O)COCP(=O)(O)O)c(=O)[nH]1`, the Ki in series [1] turned out to be 70 nM; in series [2], 6 nM; in series [5], 200 nM.
For the compound `Nc1nc2c(ncn2C[C@@H](COCP(=O)([O-])[O-])OCC(O)P(=O)([O-])[O-])c(=O)[nH]1.[Na+].[Na+].[Na+].[Na+]` (stereo not given in full), the Ki was 30 nM in series [1]; 100 nM in series [2]; 5 nM in series [3]; 20 nM in series [4]; 10 nM in series [5]. Moreover, the Activity entry with NHDF and in the series on HeLa was “Non-Toxic” throughout.
